Assay results: US10905683B2, “Compositions and uses of amidine derivatives” (BIOCRYST PHARMACEUTICALS, INC., priority 2014, dated 2021)
Like-named read-outs stand apart in the source and are kept apart here.

Experiments:
[1] = pKa by UV-metric and potentiometric titration; format: physicochemical
Text: The pKa experiments have been performed by both UV-metric (in aqueous) and potentiometric method (in methanol cosolvents). Nine titrations have been performed for the compound, all from low to high pH (2.0-12.0).

[2] = Caco-2 bi-directional permeability, absence and presence of P-gp inhibitor verapamil; format: in vitro ADME; conditions: human; Caco-2, P-gp inhibitor absent
Description: (§1) The Caco-2 bi-directional permeability of the compound of Example 1 was evaluated in the absence and presence of a known P-gp inhibitor, verapamil.

Caco-2 = assay: as above; format: in vitro ADME
Description: as §1

[3] = Aqueous solubility assay in buffer and simulated gastric/intestinal fluids
Description: The target concentration in each solution was 100 μM. […] The aqueous solutions were added (1 mL) to the dried samples and mixed at 400 rpm at 37° C. on an orbital plate shaker. […] Samples were prepared in triplicate. Testosterone and verapamil were used as reference compounds.

[4] = Solubility in organic solvents; format: physicochemical
Description: The solubility of the compound of Example 1 in a range of organic solvents was measured. Solubility assays were performed by the sequential addition of the compound of Example 1 to an appropriate organic solvent while stirring vigorously until a precipitate is formed. The resulting suspension is then shaken for 24 hours at room temperature, filtered and the resulting solution was analyzed by appropriate analytical method. Quantitation was performed by comparison of the concentrations of the resulting solution of the compound of Example 1 to a single point calibration curve using a solution of the reference standard.

[5] = Phase 1 Part 1, single ascending oral dose pharmacokinetics and food effect; format: in vivo, human; conditions: for Tmax: median
Description: A two-part, Phase 1, double-blind, placebo-controlled study of the compound of Example 1 was conducted in healthy subjects. Part 1 of the study assessed the safety, tolerability and the pharmacokinetic (PK) and pharmacodynamic (PD) properties of the compound of Example 1 following a single ascending dose. Subjects were enrolled in five sequential cohorts and received the compound of Example 1 (50 mg, 125 mg, 250 mg, 500 mg or 1000 mg; n=6/cohort) or placebo (n=2/cohort) under fasting conditions. To enable a food-effect assessment on exposure, subjects enrolled in Cohort 4 (500 mg or placebo) subsequently received a second dose of the compound of Example 1 following a high-fat breakfast.
A summary of the pharmacokinetic parameters for fasting, single oral doses of 50 to 1000 mg of the compound of Example 1 (Part 1) is presented in Table 16.
Compound concentrations then declined biphasically and were quantifiable through 9 hours postdose in Cohort 1 (50 mg) and 24 hours postdose in Cohorts 4 and 5 (500 and 1000 mg).

[6] = 50 mg single oral dose, fasting, GM
[7] = 125 mg single oral dose, fasting, GM
[8] = 250 mg single oral dose, fasting, GM
[9] = 500 mg single oral dose, FASTED, GM
[10] = human, plasma, po, 50 mg, 50 mg single oral dose, fasting, GM
[11] = human, plasma, po, 125 mg, 125 mg single oral dose, fasting, GM
[12] = human, plasma, po, 250 mg, 250 mg single oral dose, fasting, GM
[13] = human, plasma, po, 500 mg, 500 mg single oral dose, FASTED, GM
[14] = human, plasma, po, 500 mg, 500 mg single oral dose, FED (high-fat breakfast), GM
[15] = human, plasma, po, 1000 mg, 1000 mg single oral dose, fasting, GM

In the case of C=Cc1cc(C(=O)Nc2ccc(C(=N)N)cc2)c(-c2ccc(C(=O)NCC3CC3)nc2C(=O)O)cc1OC [Example 1, 3-[2-(4-carbamimidoyl-phenylcarbamoyl)-5-methoxy-4-vinyl-phenyl]-6-(cyclopropylmethyl-carbamoyl)-pyridine-2-carboxylic acid], the pKa ([1]; aqueous (UV-metric), methanol cosolvents (potentiometric), no higher pKa observed by potentiometric method, read-out: higher pKa as reported) is reported as > 11, the pKa ([1]; aqueous (UV-metric), methanol cosolvents (potentiometric), no lower pKa observed by potentiometric method, read-out: lower pKa as reported) is reported as < 3 and the pKa ([1]; aqueous, UV-metric method, aqueous, read-out: lower pKa) is reported as 2.31 ± 0.15. The Papp A→B [2] was 0.5 ×10⁻⁶ cm/s, the Papp B→A [2] was 0.5 ×10⁻⁶ cm/s and the efflux ratio [2] was 0.9. For the same compound, the permeability class (Caco-2; Caco-2 bi-directional) was “low permeability compound”, the P-gp substrate (Caco-2; Caco-2 with and without verapamil) was “does not appear to be a substrate of P-gp” and the solubility at 24 h ([3]; 37 °C, fassgf or other biorelevant, thermodynamic from solid, Observed Solubility, Target 100 μM, Fasted-State SGF, 24 hours) was 109 µM. It also gave a solubility at 24 h ([3]; 37 °C, fassgf or other biorelevant, thermodynamic from solid, Observed Solubility, Target 100 μM, Fed-State SGF, 24 hours) of 99 µM, a solubility at 24 h ([3]; 37 °C, fassif, thermodynamic from solid, Observed Solubility, Target 100 μM, Fasted-State SIF, 24 hours) of 111 µM and a solubility at 24 h ([3]; 37 °C, fessif, thermodynamic from solid, Observed Solubility, Target 100 μM, Fed-State SIF, 24 hours) of 119 µM. For the same compound, the solubility at 24 h ([3]; 37 °C, pH 7.4, aqueous buffer, thermodynamic from solid, Observed Solubility, Target 100 μM, 0.1M phosphate buffer pH 7.4, 37° C., 24 hours) was 118 µM, the solubility at 24 h ([3]; solubility, aqueous/physiological fluids) was 100 µg/mL and the “Saturated concentration of Example 1” value ([4]; Dimethyl acetamide, 40% solvent in water) was 12.9 mg/mL. For the same compound, the “Saturated concentration of Example 1” value ([4]; Dimethyl acetamide, 60% solvent in water) was 24.8 mg/mL, the “Saturated concentration of Example 1” value ([4]; Ethanol, 40% solvent in water) was 5.9 mg/mL and the “Saturated concentration of Example 1” value ([4]; Ethanol, 60% solvent in water) was 21.8 mg/mL. For the same compound, the “Saturated concentration of Example 1” value ([4]; Ethanol, 100%) was 23.9 mg/mL, the “Saturated concentration of Example 1” value ([4]; Glycerol, 100%) was 5.5 mg/mL and the “Saturated concentration of Example 1” value ([4]; N-Methyl-2-pyrrolidone, 100%, not saturated) was >11 (not saturated) mg/mL. For the same compound, the “Saturated concentration of Example 1” value ([4]; Polyethylene glycol 400, 40% solvent in water) was 11.9 mg/mL, the “Saturated concentration of Example 1” value ([4]; Polyethylene glycol 400, 60% solvent in water) was 18.6 mg/mL and the “Saturated concentration of Example 1” value ([4]; Polyethylene glycol 400, 100%) was 21.2 mg/mL. The “Saturated concentration of Example 1” value ([4]; Propylene glycol, 40% solvent in water) was 2.67 mg/mL, the “Saturated concentration of Example 1” value ([4]; Propylene glycol, 60% solvent in water) was 27.9 mg/mL and the “Saturated concentration of Example 1” value ([4]; Propylene glycol, 100%) was >55 mg/mL. For the same compound, the “DN AUC0-inf” value [5, 6] was 1.94 ng·h/mL/mg, the “DN Cmax” value [5, 6] was 0.528 ng/mL/mg and the “DN AUC0-inf” value [5, 7] was 1.58 ng·h/mL/mg. The “DN Cmax” value [5, 7] was 0.432 ng/mL/mg, the “DN AUC0-inf” value [5, 8] was 1.41 ng·h/mL/mg and the “DN Cmax” value [5, 8] was 0.344 ng/mL/mg. The “reduction of AUCinf with food v. fasting” value ([5]; 500 mg single oral dose) was 23%, the “reduction of AUClast with food v. fasting” value ([5]; 500 mg single oral dose) was 20% and the “reduction of geometric mean Cmax after a high-fat breakfast v. fasting” value ([5]; 500 mg single oral dose) was 47%. The “DN AUC0-inf” value [5, 9] was 1.60 ng·h/mL/mg, the “DN Cmax” value [5, 9] was 0.311 ng/mL/mg and the “DN Cmax” value ([5]; 1000 mg single oral dose, fasting, GM) was 0.193 ng/mL/mg. For the same compound, the “DN AUC0-inf” value ([5]; 1000 mg single oral dose, fasting, GM, n = 5) was 0.983 ng·h/mL/mg, the half-life ([5]; human, plasma, oral, 50 mg, Cohort 1 (50 mg single dose), read-out: terminal half-life (converted)) was ~3 h and the half-life ([5]; human, plasma, oral, 500 mg, Cohort 4 (500 mg single dose), read-out: terminal half-life (converted)) was ~15 h. For the same compound, the concentration at 12 h ([5]; human, plasma, oral, single doses, read-out: plasma concentrations at 12 hours postdose) was < 10 ng/mL, the AUC(0-inf) [5, 10] was 96.8 ng·h/mL and the AUC(0-t) [5, 10] was 89.6 ng·h/mL. For the same compound, the Cmax [5, 10] was 26.4 ng/mL, the half-life ([5]; human, plasma, po, 50 mg, 50 mg single oral dose, fasting, GM, read-out: t1/2 (converted)) was 2.98 h and the Tmax ([5]; human, plasma, po, 50 mg, 50 mg single oral dose, fasting) was 1 h. It also gave an AUC(0-inf) [5, 11] of 197 ng·h/mL, an AUC(0-t) [5, 11] of 188 ng·h/mL and a Cmax [5, 11] of 54 ng/mL. It also gave a half-life ([5]; human, plasma, po, 125 mg, 125 mg single oral dose, fasting, GM, read-out: t1/2 (converted)) of 4.66 h, a Tmax ([5]; human, plasma, po, 125 mg, 125 mg single oral dose, fasting) of 2 h and an AUC(0-inf) [5, 12] of 353 ng·h/mL. It also gave an AUC(0-t) [5, 12] of 336 ng·h/mL, a Cmax [5, 12] of 85.9 ng/mL and a half-life ([5]; human, plasma, po, 250 mg, 250 mg single oral dose, fasting, GM, read-out: t1/2 (converted)) of 6.5 h. The Tmax ([5]; human, plasma, po, 250 mg, 250 mg single oral dose, fasting) was 2 h, the AUC(0-inf) [5, 13] was 802 ng·h/mL and the AUC(0-t) [5, 13] was 760 ng·h/mL. The Cmax [5, 13] was 155 ng/mL, the half-life ([5]; human, plasma, po, 500 mg, 500 mg single oral dose, FASTED, GM, read-out: t1/2 (converted)) was 15.4 h and the Tmax ([5]; human, plasma, po, 500 mg, 500 mg single oral dose, FASTED) was 2 h. For the same compound, the AUC(0-t) [5, 14] was 586 ng·h/mL, the Cmax [5, 14] was 82.1 ng/mL and the AUC(0-inf) ([5]; human, plasma, po, 500 mg, 500 mg single oral dose, FED (high-fat breakfast), GM, n = 5) was 642 ng·h/mL. The half-life ([5]; human, plasma, po, 500 mg, 500 mg single oral dose, FED (high-fat breakfast), GM, n = 5, sampling to 96 hours, read-out: t1/2 (converted)) was 18.9 h, the Tmax ([5]; human, plasma, po, 500 mg, 500 mg single oral dose, FED (high-fat breakfast)) was 2.5 h and the AUC(0-t) [5, 15] was 981 ng·h/mL. For the same compound, the Cmax [5, 15] was 193 ng/mL, the AUC(0-inf) ([5]; human, plasma, po, 1000 mg, 1000 mg single oral dose, fasting, GM, n = 5) was 983 ng·h/mL and the half-life ([5]; human, plasma, po, 1000 mg, 1000 mg single oral dose, fasting, GM, n = 5, sampling to 96 hours, read-out: t1/2 (converted)) was 12.3 h. It also gave a Tmax ([5]; human, plasma, po, 1000 mg, 1000 mg single oral dose, fasting) of 2 h.
